The values that follow come from patent US5348962A, “Hydroxyquinolone derivatives compounds which have pharmaceutical utility” (Merck Sharpe & Dohme Ltd., priority 1990, dated 1994).

The assay concerns AMPA receptor. Description: Cortical slice studies: responses to AMPA in rat cortical slice. It counts as cell-based. Particulars: from righthand shift in AMPA concentration-response curves, read-out: apparent equilibrium constant (Kb) in response to AMPA. On the procedure:
The compounds useful in this invention potently and selectively block responses to NMDA and/or AMPA in a brain slice from rat cortex, and inhibit the binding of agonists and antagonists to the strychnine-insensitive site present on the NMDA receptor and/or AMPA binding to rat forebrain membranes.
The effects of compounds of the invention on responses to NMDA and AMPA were assessed using the rat cortical slice as described by Wong et al., Proc. Natl. Acad. Sci. USA, 1986, 83, 7104. The apparent equilibrium constant (Kb) was calculated from the righthand shift in the NMDA or AMPA concentration-response curves produced by the compound under test.

Consider `O=c1[nH]c2cc([N+](=O)[O-])ccc2c(O)c1-c1ccccc1` [Example 12, 4-Hydroxy-7-nitro-3-phenyl-2(1H)-quinolone], for which the Kb is under 150 µM.
